Reference: PMC3436960 (Biochemistry, 2012)

How the values were obtained:
[1] = biological target: S. typhimurium OMP synthase (orotate phosphoribosyltransferase) (Salmonella enterica, UniProt P08870, K103A); experiment: biochemical
[2] = biological target: S. typhimurium OMP synthase (orotate phosphoribosyltransferase) (Salmonella enterica, UniProt P08870, DEL102-102/DEL106-106); experiment: biochemical
[3] = biological target: S. typhimurium OMP synthase (orotate phosphoribosyltransferase) (Salmonella enterica, UniProt P08870, E107A); experiment: biochemical
[4] = biological target: S. typhimurium OMP synthase (orotate phosphoribosyltransferase) (Salmonella enterica, UniProt P08870, H105A); experiment: biochemical
[5] = biological target: S. typhimurium OMP synthase (orotate phosphoribosyltransferase) (Salmonella enterica, UniProt P08870, E101A); experiment: biochemical
[6] = biological target: T1, S. typhimurium OMP synthase (orotate phosphoribosyltransferase) (Salmonella enterica, UniProt P08870); experiment: equilibrium binding by centrifugal filtration
T1 sequence (P08870 2-213): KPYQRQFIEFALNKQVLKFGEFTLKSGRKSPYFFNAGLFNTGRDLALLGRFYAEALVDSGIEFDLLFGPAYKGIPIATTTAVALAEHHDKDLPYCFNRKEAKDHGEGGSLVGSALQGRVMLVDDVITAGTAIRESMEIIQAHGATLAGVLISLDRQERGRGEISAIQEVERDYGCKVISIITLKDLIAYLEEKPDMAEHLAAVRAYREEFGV

[7] = biological target: S. typhimurium OMP synthase (orotate phosphoribosyltransferase) (Salmonella enterica, UniProt P08870, D104A); experiment: biochemical
[8] = substrate: O=P(O)(O)OC[C@H]1O[C@H](OP(=O)(O)OP(=O)(O)O)[C@H](O)[C@@H]1O; experiment: purified protein; assay type: biochemical, Salmonella enterica; details: 300 μM orotate, 6 mM MgCl2, 75 mM Tris-Cl, pH 8.0, 30°C
[9] = substrate: O=C(O)c1cc(=O)[nH]c(=O)[nH]1; experiment: purified protein; assay type: biochemical, Salmonella enterica; details: 1 mM PRPP, 6 mM MgCl2, 75 mM Tris-Cl, pH 8.0, 30°C
[10] = substrate: O=C(O)c1cc(=O)[nH]c(=O)n1[C@@H]1O[C@H](COP(=O)(O)O)[C@@H](O)[C@H]1O; experiment: purified protein; details: 2 mM PPi, 3 mM MgCl2, 80 mM Tris-Cl, pH 8.0, 30°C
[11] = substrate: O=P(O)(O)OP(=O)(O)O; experiment: purified protein; details: 100 μM OMP, 3 mM MgCl2, 80 mM Tris-Cl, pH 8.0, 30°C

O=C(O)c1cc(=O)[nH]c(=O)n1[C@@H]1O[C@H](COP(=O)(O)O)[C@@H](O)[C@H]1O [OMP]
Kd [1]: 3 ± 0.1 µM
Kd [2]: 2 ± 0.1 µM
Kd [3]: 6.5 ± 0.8 µM
Kd [4]: 4 ± 0.3 µM
Kd [5]: 12 ± 2 µM
Kd [6]: 3.1 ± 0.1 µM

O=C(O)c1cc(=O)[nH]c(=O)[nH]1 [Orotate]
Kd [6]: 280 ± 30 µM

O=P(O)(O)OC[C@H]1O[C@H](OP(=O)(O)OP(=O)(O)O)[C@H](O)[C@@H]1O [PRPP]
Kd [1]: 125 ± 11 µM
Kd [3]: 7.1 ± 0.5 µM
Kd [4]: 92 ± 11 µM
Kd [7]: 13 ± 0.7 µM
Kd [5]: 36 ± 3 µM
Kd [6]: 33 ± 0.5 µM

B1: S. typhimurium OMP synthase (orotate phosphoribosyltransferase) (Salmonella enterica subsp. enterica serovar Typhimurium str. LT2) (protein)
chain: KPYQRQFIEFALNKQVLKFGEFTLKSGRKSPYFFNAGLFNTGRDLALLGRFYAEALVDSGIEFDLLFGPAYKGIPIATTTAVALAEHHDKDLPYCFNRKEAKDHGEGGSLVGSALQGRVMLVDDVITAGTAIRESMEIIQAHGATLAGVLISLDRQERGRGEISAIQEVERDYGCKVISIITLKDLIAYLEEKPDMAEHLAAVRAYREEFGV
Km [8]: 18 ± 5 µM
kcat [8]: 56 ± 2.5 s⁻¹
kcat/Km [8]: 3.1e+06 M⁻¹ s⁻¹
Km [9]: 19 ± 3 µM
kcat [9]: 56 ± 2.5 s⁻¹
kcat/Km [9]: 3e+06 M⁻¹ s⁻¹
Km [10]: 3 ± 0.3 µM
Km [11]: 31 ± 3 µM
kcat [11]: 18 ± 0.3 s⁻¹
kcat/Km [11]: 580000 M⁻¹ s⁻¹
